Consider 72 molecules from PubChem BioAssay AID2423 (Broad Institute, 2010).

Each structure is given as a SMILES string. Several values for one entry are separate records, joined by “and”; a condition that tells them apart may be missing. Identical values can stand only once. Records with an inconclusive call do not appear. Activity calls are given as the source filed them. No rule for the calls is given here. Bounds are passed on as bounds.

This assay deals with C. albicans CaCi-8 + fluconazole, Alamar Blue growth, 48 h. The assay can be described thus: resistant C. albicans growth inhibition with fluconazole, dose response, CaCi-8 strain, Alamar Blue fluorescence (AID 2423). In general terms: The colour change of resazurin is a common sign of viable cells or microbes.

Usually EC50 stands for the midpoint of the concentration-response curve. `CN(C)c1ccc(C(=O)N/N=C/c2cc(Br)cc(Br)c2O)cc1`: the EC50 is 10900 nM.

On to `O=C(O)c1cnc(-c2ccccc2)nc1Sc1ccc(Cl)cc1`, for which the EC50 was > 15000 nM (inactive).

On to `O=C(Cc1ccccc1)Nc1nonc1NC(=O)c1ccccc1`, for which the 50% effective concentration (EC50) is 477 nM.

With `O=C(COc1ccc(F)cc1)Nc1nc(-c2ccccn2)cs1`, the EC50 is 2230 nM.

Regarding `Cc1c(Cl)ccc(S(=O)(=O)Nc2cccnc2)c1Cl`, the EC50 is > 15000 nM (inactive).

With `C/C(=N\O)c1cc(Cl)cc(Cl)c1O`, the concentration giving a half-maximal response (EC50) was 3660 nM.

As to `COc1cccc(N=Nc2ccc(O)c3ncccc23)c1`, the EC50 is 505 nM.

As to `COc1ccc(/C=C/C(=O)N(c2ccccn2)C2CCCCC2)cc1OC`, the concentration for a half-maximal effect (EC50) is 7990 nM.

Regarding `CCCc1ccc(OCC(=O)Nc2cc(S(=O)(=O)CC)ccc2O)cc1`, the EC50 was 439 nM.

On to `COc1ccc(-c2csc(N(CC3CCCO3)C(=O)c3ccco3)n2)cc1` (configuration not stated), for which the EC50 was > 16000 nM (inactive).

For `CCc1cc(=S)n2c([nH]c3ccccc32)c1C#N`, the EC50 is 513 nM.

`O=C(COS(=O)c1ccccc1)Nc1cc(Cl)ccc1N1CCOCC1` (configuration not stated): the EC50 is 3110 nM.

With `CCOc1ccc2nc(NC(=S)N(C)C)sc2c1`, the EC50 was 1220 nM.

Regarding `CCOC(=O)C1CCN(CCC(=O)Nc2ccc(F)cc2)CC1`, the EC50 was > 15000 nM (inactive).

Regarding `COc1ccccc1NS(=O)(=O)c1cc(NC(=O)CCC(=O)c2cccs2)ccc1Cl`, the EC50 is > 15000 nM (inactive).

Regarding `O=S(=O)(Nc1nc(-c2ccccc2)cs1)c1cc(Cl)ccc1Cl`, the EC50 is 2790 nM.

As for `CNC(=S)/N=C/NOCc1ccc(Cl)cc1Cl`, the EC50 is 460 nM.

Take `O=C(C[n+]1ccccc1)N/N=C/c1cccs1`: the EC50 was > 15000 nM (inactive).

`c1cnc2c(c1)ccc1cccnc12`: the EC50 is 10500 nM and 9350 nM.

Turning to `O=C1NC(=O)/C(=C\c2ccc(Br)o2)S1`, the EC50 was 1720 nM.

As for `Brc1ccc(/C=C/C=N/Nc2nc3ccccc3s2)cc1`, the EC50 was > 16000 nM (inactive).

In the case of `O=C(CN1C(=O)/C(=C/c2ccccc2)SC1=S)NNC(=O)c1ccccc1O`, the EC50 was > 16000 nM (inactive).

As to `CCC(=O)NC(c1ccccc1OC)c1ccc2cccnc2c1O` (configuration not stated), the half-maximal effective concentration (EC50) was 999 nM.

`O=C(Nc1ccccc1O)c1ccccc1O`: the EC50 was 784 nM.

As to `O=C(CSCc1ccc(Cl)cc1)Nc1cc([N+](=O)[O-])ccc1O`, the EC50 is > 15000 nM (inactive).

Regarding `CCCOc1cccc(C(=O)Nc2cccnc2)c1`, the concentration giving a half-maximal response (EC50) is 2200 nM.

Regarding `O=C(CNS(=O)(=O)c1ccc(Br)s1)NCC1COc2ccccc2O1` (configuration not stated), the EC50 was > 15000 nM (inactive).

For the molecule `Nc1nc(N)c2cc(Sc3ccc4ccccc4c3)ccc2n1`, the EC50 is 1180 nM.

For `CN(C)S(=O)(=O)Oc1cccc(C(=O)Nc2ccc(Cl)c(Cl)c2)c1`, the 50% effective concentration (EC50) is 711 nM.

On to `CCn1c(=S)[nH]c2scc(-c3cccs3)c2c1=O`, for which the EC50 was > 16000 nM (inactive).

As for `C=CC(C)(C)c1c(O)c(CC=C(C)C)c(O)c2c(=O)c3ccc(O)c(O)c3oc12`, the EC50 was 3410 nM.

`Nc1c2c(nc3sc4c(c13)CCCCC4)CCCCC2`: the EC50 was 5550 nM.

On to `O=[N+]([O-])c1nn(-c2ccc(Cl)cc2)n(O)c1=NCc1cccnc1`, for which the EC50 is 1830 nM.

On to `CC/C(=N/NC(=O)c1ccccc1O)c1c(C)[nH]n(-c2ccccc2)c1=O`, for which the EC50 was 754 nM.

Regarding `Cn1cc(C(c2ccccn2)c2cn(C)c3ccccc23)c2ccccc21`, the half-maximal effective concentration (EC50) is 185 nM.

As to `FC(F)(F)c1ccccc1NC(=S)NN=C1CCCCCC1`, the EC50 was 4950 nM.

For the molecule `O=C(Nc1nnc(SCc2ccc(F)cc2)s1)c1ccccn1`, the EC50 was 487 nM.

Regarding `O=C(N/N=C/c1sc2ccccc2c1O)c1cccc2ccccc12`, the half-maximal effective concentration (EC50) is 1580 nM.

On to `Cc1ccc(C)c(OC(=O)c2cncc(Br)c2)c1`, for which the EC50 is > 16000 nM (inactive).

Take `CC(=O)NC(CC(=O)NNC(=O)c1cc2ccccc2cc1O)c1ccccc1` (configuration not stated): the EC50 was 16000 nM.

As to `Cc1cc(=O)oc2cc(Oc3ccc([N+](=O)[O-])cc3[N+](=O)[O-])ccc12`, the half-maximal effective concentration (EC50) is 652 nM.

With `COc1ccccc1C(=O)NNC(=S)NC(=O)c1cc(OC)c(OC)c(OC)c1`, the concentration for a half-maximal effect (EC50) is 9620 nM.

For `CCOc1ccc(NC(=O)c2cn(-c3ccc(OCC)cc3)c(=O)c3cc(OC)c(OC)cc23)cc1`, the half-maximal effective concentration (EC50) was 485 nM.

With `c1ccc(CC2CCN(C3=Nc4cccc5cccc3c45)CC2)cc1`, the EC50 is 4400 nM.

Regarding `CCCCCCn1c(=O)c(-c2ccccc2)c(O)c2ccccc21`, the concentration for a half-maximal effect (EC50) was 9420 nM.

With `O=C(N/N=C\c1cc(Cl)ccc1O)c1ccc(S(=O)(=O)N2CCCCC2)cc1`, the EC50 is 926 nM.

`Cc1ccc(O)c(C(=O)CC(=O)c2ccccc2Cl)c1`: the EC50 was 1570 nM.

In the case of `O=c1[nH]c(SCc2ccccc2F)nc2ccccc12`, the 50% effective concentration (EC50) is 2120 nM.

For the molecule `O=c1[nH]c(Nc2ccc3c(c2)OCCO3)nnc1Cc1ccccc1`, the EC50 is > 16000 nM (inactive).

As for `O=C(NCc1ccc(Cl)cc1)c1n[nH]c([N+](=O)[O-])c1Cl`, the EC50 was > 16000 nM (inactive).

Turning to `COc1cc(OC)cc(-c2nnc(Nc3nc4c(F)cccc4s3)o2)c1`, the EC50 was > 15000 nM (inactive).

For the molecule `c1ccc(-c2ccccc2OCCCN2CCCCCC2)cc1`, the EC50 is 6610 nM.

In the case of `CC(C)CC(=O)NC(=S)NNC(=O)c1ccc(NC(=O)C2CCCCC2)cc1`, the EC50 is 1210 nM.

Consider `CCN(CC)c1ccc(/C=N/NC(=O)CNC(=O)C2COc3ccccc3O2)c(O)c1` (configuration not stated), for which the concentration giving a half-maximal response (EC50) is 1110 nM.

For the molecule `CCCCCCCSc1nc(N)cc(=O)[nH]1`, the EC50 is 5940 nM.

Consider `CC(C)n1cc(/C=C/c2cc[n+](C)cc2)c2ccccc21`, for which the EC50 was 3090 nM.

On to `Cc1onc(-c2ccccc2)c1C(=O)NC(=S)NNC(=O)c1cccnc1`, for which the EC50 is > 16000 nM (inactive).

On to `Oc1c(CN2CCN(c3ccc(F)cc3)CC2)cc(Cl)c2cccnc12`, for which the EC50 was 572 nM.

Turning to `O=C(NC(=S)NNC(=O)[C@H]1C[C@@H]1c1ccccc1)c1cccc(F)c1`, the concentration giving a half-maximal response (EC50) was 2560 nM.

Consider `O=[N+]([O-])c1cc(/C=N/Nc2nc3ccccc3[nH]2)c(O)cc1O`, for which the EC50 was 6220 nM.

`CCC(C)OC(=O)C[N+](C)(C)CCOC1CC2CCC1(C)C2(C)C` (configuration not stated): the EC50 was 6590 nM.

`O=C1C=C(NCc2ccccc2)c2ccccc2C1=O`: the EC50 is 1860 nM.

For `O=C(Oc1c(CN2CCOCC2)cc(Cl)c2cccnc12)c1ccc(F)cc1`, the concentration for a half-maximal effect (EC50) is 3110 nM.

Turning to `CCC(Oc1ccccc1)C(=O)Nc1ncc([N+](=O)[O-])s1` (configuration not stated), the EC50 was > 16000 nM (inactive).

In the case of `Cc1ccc(C)c(NC(=S)NNC(=O)c2csc3c2CCC(C)C3)c1` (configuration not stated), the concentration giving a half-maximal response (EC50) is 1150 nM.

Turning to `CCCn1c(N)c(C(=O)COC(=O)c2c(C)noc2C)c(=O)n(C)c1=O`, the EC50 is > 15000 nM (inactive).

For `CCOc1cc(S(=O)(=O)NCc2ccccc2)c(OCC)cc1-n1cnnn1`, the EC50 was > 15000 nM (inactive).

With `O=C(Cc1ccccc1)N/N=C/c1cc(Br)cc(Cl)c1O`, the EC50 is > 15000 nM (inactive).

Regarding `Oc1ccccc1N=Nc1ccccc1O`, the concentration for a half-maximal effect (EC50) was 973 nM.

`C=C(C)COc1ccc(-c2n[nH]c(C)c2-c2ccccc2)c(O)c1`: the EC50 was 4290 nM.

Turning to `N#Cc1ccc(-c2nc3cc(Cl)ccc3c(=O)n2O)cc1`, the EC50 is 3570 nM.

In the case of `S=c1[nH]nc(-c2cccs2)n1/N=C/c1cccs1`, the EC50 was 1080 nM.
